# Results: patent US10493077B2, “Fused imidazo-piperidine JAK inhibitor compound” (THERAVANCE BIOPHARMA R&D IP, LLC, priority 2017, dated 2019)
# Tests used:
# [1] = system: IFNγ induced IP-10; test: Pharmacodynamic assay: inhibition of IFNγ-induced IP-10 in rabbit eyes; format: in vivo; details: Form 1 suspension, 0.9 mg intravitreal, 1 week pre-treatment, New Zealand White rabbits
# Procedure: The ability of a single intravitreal administration of test compound to inhibit interferon-gamma (IFNγ) induced IP-10 protein levels was measured in rabbit vitreous and retina/choroid tissues.
# A suspension formulation was prepared by combining compound 1 of Example 2 (Form 1), with 0.5% hydroxypropyl methylcellulose (HPMC E5), 0.02% Tween 80, and 9 mg/mL sodium chloride in purified water to attain a target concentration of 20 mg/mL.
# Male, New Zealand White rabbits (Liveon Biolabs, India) were used for the studies. Animals were acclimated after arrival at the research facilities (Jubilant Biosys Ltd., India). Each rabbit was given a total of two intravitreal (IVT) injections with a total dose volume of 50 μL per eye. The first IVT injection (45 μL per eye) delivered 0.9 mg of test compound or vehicle. One week later, a second IVT injection (5 μL per eye) delivered IFNγ (1 μg/eye; stock solution 1 mg/mL; Kingfisher Biotech) or vehicle for the induction of IP-10. […]
# Tissues were collected 24 hours after the second IVT injection with IFNγ. Vitreous humor (VH) and retina/choroid tissues (R/C) were collected and homogenized, and IP-10 protein levels were measured using a rabbit CXCL10 (IP-10) ELISA kit (Kingfisher Biotech). The percent inhibition of IFNγ-induced IP-10 was calculated in comparison to the vehicle/vehicle and vehicle/IFNγ groups.
# [2] = system: IL-2/anti-CD3 stimulated IFNγ in human PBMCs; test: Cellular JAK potency assay: inhibition of IL-2/anti-CD3 stimulated IFNγ in human PBMCs; format: cell-based; details: PBMC, 24 h stimulation, read-out: pIC50, inhibition of IL-2/anti-CD3 stimulated IFNγ (converted)
# Procedure: The potency of the test compound for inhibition of interleukin-2 (IL-2)/anti-CD3 stimulated interferon gamma (IFNγ) was measured in human peripheral blood mononuclear cells (PBMCs) isolated from human whole blood (Stanford Blood Center). Because IL-2 signals through JAK, this assay provides a measure of JAK cellular potency.
# (1) Human peripheral blood mononuclear cells (PBMC) were isolated from human whole blood of healthy donors using a ficoll gradient. Cells were cultured in a 37° C., 5% CO2 humidified incubator in RPMI (Life Technologies) supplemented with 10% Heat Inactivated Fetal Bovine Serum (FBS, Life Technologies), 2 mM Glutamax (Life Technologies), 25 mM HEPES (Life Technologies) and 1× Pen/Strep (Life Technologies). Cells were seeded at 200,000 cells/well in media (50 μL) and cultured for 1 h. The compound was serially diluted in DMSO and then diluted another 500-fold (to a 2× final assay concentration) in media. […]
# (2) After cytokine stimulation, cells were centrifuged at 500 g for 5 min and supernatants removed and frozen at −80° C. To determine the inhibitory potency of test compounds in response to IL-2/anti-CD3, supernatant IFNγ concentrations were measured via ELISA (R&D Systems). IC50 values were determined from analysis of the inhibition curves of concentration of IFNγ vs compound concentration. Data are expressed as pIC50 (negative decadic logarithm IC50) values.
# [3] = target: T1, CDK2 (Homo sapiens, UniProt P24941); test: Kinome screen, CDK2; format: binding; details: screened at 1 μM
# T1 construct: made in house; host or cells: T7 phage in E. coli (BL21-derived) or HEK-293
# Procedure: Kinase-tagged T7 phage strains were grown in parallel in 24-well blocks in an E. coli host derived from the BL21 strain. E. coli were grown to log-phase and infected with T7 phage from a frozen stock (multiplicity of infection=0.4) and incubated with shaking at 32° C. until lysis (90-150 minutes). The lysates were centrifuged (6,000×g) and filtered (0.2 μm) to remove cell debris. The remaining kinases were produced in HEK-293 cells and subsequently tagged with DNA for qPCR detection.
# Streptavidin-coated magnetic beads were treated with biotinylated small molecule ligands for 30 minutes at room temperature to generate affinity resins for kinase assays. The liganded beads were blocked with excess biotin and washed with blocking buffer (SeaBlock (Pierce), 1% BSA, 0.05% Tween 20, 1 mM DTT) to remove unbound ligand and to reduce non-specific phage binding. […] Test compounds were prepared as 40× stocks in 100% DMSO and directly diluted into the assay. All reactions were performed in polypropylene 384-well plates in a final volume of 0.04 ml. […] The beads were then re-suspended in elution buffer (1×PBS, 0.05% Tween 20, 0.5 μM non-biotinylated affinity ligand) and incubated at room temperature with shaking for 30 minutes. The kinase concentration in the eluates was measured by qPCR.
smiles,measurement,setting,value
"CCc1cc(O)c(F)cc1-c1cc(F)c2c(-c3nc4c([nH]3)CCN(C(=O)CN3CCOCC3)C4)n[nH]c2c1 [Compound 1, 1-(2-(6-(2-ethyl-5-fluoro-4-hydroxyphenyl)-4-fluoro-1H-indazol-3-yl)-1,4,6,7-tetrahydro-5H-imidazo[4,5-c]pyridin-5-yl)-2-morpholinoethan-1-one]",inhibition of IFNγ-induced IP-10 in retina/choroid tissues,[1],80%
same,inhibition of IFNγ-induced IP-10 in vitreous humor,[1],81%
same,IC50,[2],~200 nM
same,inhibition at 1 µM,[3],6%
